Measurements reported in US20240425500A1 (priority 2021, published 2024).

Tests used:
[1] = system: Phytophthora infestans; experiment: whole plant or invertebrate; assay type: in vivo; conditions: in Solanum lycopersicum, foliar, read-out: control of Phytophthora infestans compared to untreated control
[2] = system: Pythium ultimum; experiment: Pythium ultimum / liquid culture (seedling damping off); assay type: cell-based; conditions: Globisporangium ultimum, liquid culture in PDB, 24 °C, 2-3 days after application, read-out: control of Pythium ultimum (inhibition of growth, photometric) compared to untreated control
Method: Pythium ultimum/Liquid Culture (Seedling Damping Off):
Mycelia fragments and oospores of a newly grown liquid culture of the fungus are directly mixed into nutrient broth (PDB potato dextrose broth). After placing a (DMSO) solution of test compound into a microtiter plate (96-well format), the nutrient broth containing the fungal mycelia/spore mixture is added. The test plates are incubated at 24° C. and the inhibition of growth is determined photometrically 2-3 days after application.

SMILES	pest or weed control at 200 ppm [1]	inhibition at 20 ppm [2]
CNC(=O)CN(C(=O)c1ccc2ncc(-c3ccc(NC(=O)OC)nc3)n2c1)c1ccc(F)c(OC)c1 [Compound 97, methyl N-[5-[6-[(4-fluoro-3-methoxy-phenyl)-[2-(methylamino)-2-oxo-ethyl]carbamoyl]imidazo[1,2-a]pyridin-3-yl]-2-pyridyl]carbamate]	≥ 80%	≥ 80%
CNC(=O)Nc1ccc(-c2cnc3ccc(C(=O)N(C)c4ccc(F)c(OC)c4)cn23)cn1 [Compound 81, N-(4-fluoro-3-methoxy-phenyl)-N-methyl-3-[6-(methylcarbamoyl-amino)-3-pyridyl]imidazo[1,2-a]pyridine-6-carboxamide]	≥ 80%	≥ 80%
COC(=O)Nc1ccc(-c2cnc3ccc(C(=O)N(CCC#N)c4ccc(Cl)cc4)cn23)cn1 [Compound 128, methyl N-[5-[6-[(4-chlorophenyl)-(2-cyanoethyl)carbamoyl]imidazo[1,2-a]pyridin-3-yl]-2-pyridyl]carbamate]	≥ 80%	≥ 80%
COC(=O)Nc1ccc(-c2cnc3ccc(C(=O)N(C)c4cccc(F)c4)cn23)cn1 [Compound 52, methyl N-[5-[6-[(3-fluorophenyl)-methyl-carbamoyl]imidazo[1,2-a]pyridin-3-yl]-2-pyridyl]carbamate]	≥ 80%	≥ 80%
CCN(C(=O)c1ccc2ncc(-c3ccc(NC(=O)OC)nc3)n2c1)c1ccc(Cl)cc1 [Compound 129, methyl N-[5-[6-[(4-chlorophenyl)-ethyl-carbamoyl]imidazo[1,2-a]pyridin-3-yl]-2-pyridyl]carbamate]	≥ 80%	≥ 80%
CCOCCN(C(=O)c1ccc2ncc(-c3ccc(NC(=O)OC)nc3)n2c1)c1ccc(Cl)cc1 [Compound 123, methyl N-[5-[6-[(4-chlorophenyl)-(2-ethoxyethyl)carbamoyl]imidazo[1,2-a]pyridin-3-yl]-2-pyridyl]carbamate]	≥ 80%	≥ 80%
COC(=O)Nc1ccc(-c2cnc3ccc(C(=O)N(CCC#N)c4cccc(C)c4)cn23)cn1 [Compound 130, methyl N-[5-[6-[2-cyanoethyl(m-tolyl)carbamoyl]imidazo [1,2-a]pyridin-3-yl]-2-pyridyl]carbamate]	≥ 80%	≥ 80%
COC(=O)Nc1ccc(-c2cnc3ccc(C(=O)N(C)c4cccc(Cl)c4)cn23)cn1 [Compound 62, methyl N-[5-[6-[(3-chlorophenyl)-methyl-carbamoyl]imidazo[1,2-a]pyridin-3-yl]-2-pyridyl]carbamate]	≥ 80%	≥ 80%
COC(=O)Nc1ccc(-c2cnc3ccc(C(=O)N(CS(C)(=O)=O)c4ccc(F)c(OC)c4)cn23)cn1 [Compound 92, methyl N-[5-[6-[(4-fluoro-3-methoxy-phenyl)-(methylsulfonylmethyl)carbamoyl]imidazo[1,2-a]pyridin-3-yl]-2-pyridyl] carbamate]	≥ 80%	≥ 80%
CCc1cccc(N(C)C(=O)c2ccc3ncc(-c4ccc(NC(=O)OC)cc4)n3c2)c1 [Compound 10, methyl N-[4-[6-[(3-ethylphenyl)-methyl-carbamoyl]imidazo[1,2-a]pyridin-3-yl]phenyl]carbamate]	≥ 80%	≥ 80%
COC(=O)Nc1ccc(-c2cnc3ccc(C(=O)N(CCC#N)c4ccc(F)cc4)cn23)cn1 [Compound 132, methyl N-[5-[6-[2-cyanoethyl-(4-fluorophenyl)carbamoyl]imidazo [1,2-a]pyridin-3-yl]-2-pyridyl]carbamate]	≥ 80%	≥ 80%
CONC(=O)Nc1ccc(-c2cnc3ccc(C(=O)N(C)c4ccc(F)c(OC)c4)cn23)cn1 [Compound 99]	≥ 80%	≥ 80%
COC(=O)Nc1ccc(-c2cnc3c(C4CC4)cc(C(=O)N(C)c4ccc(F)cc4)cn23)cn1 [Compound 83, methyl N-[5-[8-cyclopropyl-6-[(4-fluorophenyl)-methyl-carbamoyl]imidazo[1,2-a]pyridin-3-yl]-2-pyridyl]carbamate]	≥ 80%	≥ 80%
COC(=O)Nc1ccc(-c2cnc3ccc(C(=O)N(c4ccc(F)cc4)C(C)C)cn23)cn1 [Compound 140, methyl N-[5-[6-[(4-fluorophenyl)-isopropyl-carbamoyl]imidazo[1,2-a]pyridin-3-yl]-2-pyridyl]carbamate]	≥ 80%	≥ 80%
COC(=O)Nc1ccc(-c2cnc3ccc(C(=O)N(c4ccc(F)cc4)C4CCC4)cn23)cn1 [Compound 109, methyl N-[5-[6-[cyclobutyl-(4-fluorophenyl)carbamoyl]imidazo [1,2-a]pyridin-3-yl]-2-pyridyl]carbamate]	≥ 80%	≥ 80%
COC(=O)Nc1ccc(-c2cnc3ccc(C(=O)N(C)c4cncc(OC)c4)cn23)cn1 [Compound 55, methyl N-[5-[6-[(5-methoxy-3-pyridyl)-methyl-carbamoyl]imidazo[1,2-a]pyridin-3-yl]-2-pyridyl]carbamate]	≥ 80%	≥ 80%

SMILES	pest or weed control at 200 ppm [1]	inhibition at 20 ppm [2]
COC(=O)Nc1ccc(-c2cnc3ccc(C(=O)N(CC(C)C)c4ccccc4)cn23)cn1 [Compound 134, methyl N-[5-[6-[isobutyl(phenyl)carbamoyl]imidazo[1,2-a]pyridin-3-yl]-2-pyridyl]carbamate]	≥ 80%	
CCN(C(=O)c1ccc2ncc(-c3ccc(NC(=O)OC)nc3)n2c1)c1ccc(C)c(F)c1 [Compound 127, methyl N-[5-[6-[ethyl-(3-fluoro-4-methyl-phenyl)carbamoyl]imidazo [1,2-a]pyridin-3-yl]-2-pyridyl]carbamate]		≥ 80%
CCOC(=O)c1cc(N(C)C(=O)c2ccc3ncc(-c4ccc(NC(=O)OC)nc4)n3c2)ccc1F [Compound 176, ethyl 2-fluoro-5-[[3-[6-(methoxy-carbonylamino)-3-pyridyl]imidazo[1,2-a]pyridine-6-carbonyl]-methyl-amino]benzoate]		≥ 80%
CCN(C(=O)c1ccc2ncc(-c3ccc(NC(=O)OC)nc3)n2c1)c1ccc(OC)c(OC)c1 [Compound 119, methyl N-[5-[6-[(3,4-dimethoxyphenyl)-ethyl-carbamoyl]imidazo[1,2-a]pyridin-3-yl]-2-pyridyl]carbamate]	≥ 80%	
COC(=O)Nc1ccc(-c2cnc3ccc(C(=O)N(C)c4ccc(C)c(C)c4)cn23)cn1 [Compound 65, methyl N-[5-[6-[(3,4-dimethylphenyl)-methyl-carbamoyl]imidazo[1,2-a]pyridin-3-yl]-2-pyridyl]carbamate]		≥ 80%
COC(=O)Nc1ccc(-c2cnc3ccc(C(=O)N(c4ccccc4)C4CC4)cn23)cn1 [Compound 147, methyl N-[5-[6-[cyclopropyl(phenyl)carbamoyl]imidazo [1,2-a]pyridin-3-yl]-2-pyridyl]carbamate]		≥ 80%
CCC(=O)Nc1ccc(-c2cnc3ccc(C(=O)N(C)c4ccc(F)cc4)cn23)cn1 [Compound 166, N-(4-fluorophenyl)-N-methyl-3-[6-(propanoylamino)-3-pyridyl]imidazo[1,2-a]pyridine-6-carboxamide]		≥ 80%
COC(=O)Nc1ccc(-c2cnc3cc(C#N)c(C(=O)N(C)c4ccc(Cl)cc4)cn23)cc1 [Compound 41, methyl N-[4-[6-[(4-chlorophenyl)-methyl-carbamoyl]-7-cyano-imidazo[1,2-a]pyridin-3-yl]phenyl]carbamate]		≥ 80%
COC(=O)Nc1ccc(-c2cnc3cc(C)c(C(=O)N(C)c4ccc(Cl)cc4)cn23)cc1 [Compound 18, methyl N-[4-[6-[(4-chlorophenyl)-methyl-carbamoyl]-7-methyl-imidazo[1,2-a]pyridin-3-yl]phenyl]carbamate]		≥ 80%
COC(=O)Nc1ccc(-c2cnc3cc(Br)c(C(=O)N(C)c4ccc(Cl)cc4)cn23)cc1 [Compound 34, methyl N-[4-[7-bromo-6-[(4-chlorophenyl)-methyl-carbamoyl]imidazo[1,2-a]pyridin-3-yl]phenyl]carbamate]		≥ 80%
COC(=O)Nc1ccc(-c2cnc3ccc(C(=O)N(C)c4cccc(C)c4)cn23)cn1 [Compound 54, methyl N-[5-[6-[methyl(m-tolyl)carbamoyl]imidazo [1,2-a]pyridin-3-yl]-2-pyridyl]carbamate]		≥ 80%
COC(=O)Nc1ccc(-c2cnc3cc(OC)c(C(=O)N(C)c4ccc(Cl)cc4)cn23)cc1 [Compound 39, methyl N-[4-[6-[(4-chlorophenyl)-methyl-carbamoyl]-7-methoxy-imidazo[1,2-a]pyridin-3-yl]phenyl]carbamate]		≥ 80%
COC(=O)Nc1ccc(-c2cnc3ccc(C(=O)N(CCC#N)c4ccc(C)cc4)cn23)cn1 [Compound 125, methyl N-[5-[6-[2-cyanoethyl(p-tolyl)carbamoyl]imidazo[1,2-a]pyridin-3-yl]-2-pyridyl]carbamate]		≥ 80%
C#CCN(C(=O)c1ccc2ncc(-c3ccc(NC(=O)OC)cc3)n2c1)c1ccc(Cl)cc1 [Compound 33, methyl N-[4-[6-[(4-chlorophenyl)-prop-2-ynyl-carbamoyl]imidazo[1,2-a]pyridin-3-yl]phenyl]carbamate]		≥ 80%
COC(=O)Nc1ccc(-c2cnc3ccc(C(=O)N(CCC#N)c4ccc(Cl)c(C)c4)cn23)cn1 [Compound 148, methyl N-[5-[6-[(4-chloro-3-methyl-phenyl)-(2-cyanoethyl)carbamoyl]imidazo[1,2-a]pyridin-3-yl]-2-pyridyl]carbamate]		≥ 80%
